# Reference: ChEMBL document CHEMBL3885881, “DrugMatrix”
# Species: Rattus norvegicus
# Assay: DrugMatrix - Regimen: Daily Repeat
# Format: toxicity, organism-based, Sprague-Dawley
# Set-up: regimen Daily Repeat, gender Male, age 6-8 weeks
# Conditions: in vivo, po, route oral GAVAGE, […]; for ABSOLUTE BASOPHIL / ABSOLUTE EOSINOPHIL / ABSOLUTE LYMPHOCYTE / ABSOLUTE MONOCYTE / ABSOLUTE SEGMENTED NEUTROPHIL / BASOPHIL / EOSINOPHIL / ERYTHROCYTE COUNT / HEMATOCRIT / HEMOGLOBIN / LEUKOCYTE COUNT / LYMPHOCYTE / MEAN CORPUSCULAR HEMOGLOBIN / MEAN CORPUSCULAR HEMOGLOBIN CONCENTRATION / MEAN CORPUSCULAR VOLUME / MONOCYTE / NEUTROPHIL / NUCLEATED RED BLOOD CELLS / PLATELET COUNT: tissue Blood; for ALANINE AMINOTRANSFERASE / ALBUMIN / ALKALINE PHOSPHATASE / ASPARTATE AMINOTRANSFERASE / BLOOD UREA NITROGEN / CARBON DIOXIDE / CHLORIDE / CHOLESTEROL / CREATINE PHOSPHOKINASE / CREATININE / GLUCOSE / LACTATE DEHYDROGENASE / LIPASE / PHOSPHORUS / POTASSIUM / SODIUM / TOTAL BILIRUBIN / TOTAL PROTEIN / URIC ACID: tissue Plasma
# [1] = 50 mg/kg, 120 h, dose level Low, time 5 day
# [2] = 714 mg/kg, 72 h, dose level High, time 3 day
# [3] = 714 mg/kg, 120 h, dose level High, time 5 day
structure (smiles),measurement,setting,value
COC(=O)Nc1nc2ccc(C(=O)c3ccccc3)cc2[nH]1 [MEBENDAZOLE],ABSOLUTE BASOPHIL,[1],0 CELLS/uL
same,ABSOLUTE EOSINOPHIL,[1],0 CELLS/uL
same,ABSOLUTE LYMPHOCYTE,[1],6435.67 CELLS/uL
same,ABSOLUTE MONOCYTE,[1],130 CELLS/uL
same,ABSOLUTE SEGMENTED NEUTROPHIL,[1],501 CELLS/uL
same,BASOPHIL,[1],0%
same,EOSINOPHIL,[1],0%
same,ERYTHROCYTE COUNT,[1],5.5 x10E6/uL
same,HEMATOCRIT,[1],34.07%
same,HEMOGLOBIN,[1],13.2 G/DL
same,LEUKOCYTE COUNT,[1],7.07 x10E3/uL
same,LYMPHOCYTE,[1],91.33%
same,MEAN CORPUSCULAR HEMOGLOBIN,[1],23.93 pg
same,MEAN CORPUSCULAR HEMOGLOBIN CONCENTRATION,[1],38.77 G/DL
same,MEAN CORPUSCULAR VOLUME,[1],61.9 fL
same,MONOCYTE,[1],1.67%
same,NEUTROPHIL,[1],7%
same,NUCLEATED RED BLOOD CELLS,[1],0 /100WBC
same,PLATELET COUNT,[1],727.67 x10E3/uL
same,ALANINE AMINOTRANSFERASE,[1],57.67 u/L
same,ALBUMIN,[1],4.23 G/DL
same,ALKALINE PHOSPHATASE,[1],399 u/L
same,ASPARTATE AMINOTRANSFERASE,[1],84.33 u/L
same,BLOOD UREA NITROGEN,[1],13 mg/dL
same,CARBON DIOXIDE,[1],30.67 mmol/L
same,CHLORIDE,[1],101.67 MEQ/L
same,CHOLESTEROL,[1],64.67 mg/dL
same,CREATINE PHOSPHOKINASE,[1],244 u/L
same,CREATININE,[1],0.17 mg/dL
same,GLUCOSE,[1],149 mg/dL
same,LACTATE DEHYDROGENASE,[1],129.33 u/L
same,LIPASE,[1],9.33 u/L
same,PHOSPHORUS,[1],9.77 mg/dL
same,POTASSIUM,[1],5.24 MEQ/L
same,SODIUM,[1],144.5 MEQ/L
same,TOTAL BILIRUBIN,[1],0.17 mg/dL
same,TOTAL PROTEIN,[1],6.13 G/DL
same,URIC ACID,[1],0.83 mg/dL
same,ABSOLUTE BASOPHIL,[2],0 CELLS/uL
same,ABSOLUTE EOSINOPHIL,[2],0 CELLS/uL
same,ABSOLUTE LYMPHOCYTE,[2],11722 CELLS/uL
same,ABSOLUTE MONOCYTE,[2],64.67 CELLS/uL
same,ABSOLUTE SEGMENTED NEUTROPHIL,[2],713.33 CELLS/uL
same,BASOPHIL,[2],0%
same,EOSINOPHIL,[2],0%
same,ERYTHROCYTE COUNT,[2],5.73 x10E6/uL
same,HEMATOCRIT,[2],36.47%
same,HEMOGLOBIN,[2],14.03 G/DL
same,LEUKOCYTE COUNT,[2],12.5 x10E3/uL
same,LYMPHOCYTE,[2],93%
same,MEAN CORPUSCULAR HEMOGLOBIN,[2],24.53 pg
same,MEAN CORPUSCULAR HEMOGLOBIN CONCENTRATION,[2],38.5 G/DL
same,MEAN CORPUSCULAR VOLUME,[2],63.63 fL
same,MONOCYTE,[2],0.67%
same,NEUTROPHIL,[2],6.33%
same,NUCLEATED RED BLOOD CELLS,[2],0 /100WBC
same,PLATELET COUNT,[2],1226.67 x10E3/uL
same,ALANINE AMINOTRANSFERASE,[2],73 u/L
same,ALBUMIN,[2],4.17 G/DL
same,ALKALINE PHOSPHATASE,[2],458.33 u/L
same,ASPARTATE AMINOTRANSFERASE,[2],86.67 u/L
same,BLOOD UREA NITROGEN,[2],12.33 mg/dL
same,CARBON DIOXIDE,[2],34.33 mmol/L
same,CHLORIDE,[2],99 MEQ/L
same,CHOLESTEROL,[2],68 mg/dL
same,CREATINE PHOSPHOKINASE,[2],464 u/L
same,CREATININE,[2],0.15 mg/dL
same,GLUCOSE,[2],137.67 mg/dL
same,LACTATE DEHYDROGENASE,[2],159.67 u/L
same,LIPASE,[2],10 u/L
same,PHOSPHORUS,[2],11.13 mg/dL
same,POTASSIUM,[2],6.13 MEQ/L
same,SODIUM,[2],144.4 MEQ/L
same,TOTAL BILIRUBIN,[2],0.2 mg/dL
same,TOTAL PROTEIN,[2],6.07 G/DL
same,URIC ACID,[2],0.6 mg/dL
same,ABSOLUTE BASOPHIL,[3],0 CELLS/uL
same,ABSOLUTE EOSINOPHIL,[3],0 CELLS/uL
same,ABSOLUTE LYMPHOCYTE,[3],8770.67 CELLS/uL
same,ABSOLUTE MONOCYTE,[3],141.33 CELLS/uL
same,ABSOLUTE SEGMENTED NEUTROPHIL,[3],488 CELLS/uL
same,BASOPHIL,[3],0%
same,EOSINOPHIL,[3],0%
same,ERYTHROCYTE COUNT,[3],5.57 x10E6/uL
same,HEMATOCRIT,[3],35.9%
same,HEMOGLOBIN,[3],13.67 G/DL
same,LEUKOCYTE COUNT,[3],9.4 x10E3/uL
same,LYMPHOCYTE,[3],93%
same,MEAN CORPUSCULAR HEMOGLOBIN,[3],24.57 pg
same,MEAN CORPUSCULAR HEMOGLOBIN CONCENTRATION,[3],38.1 G/DL
same,MEAN CORPUSCULAR VOLUME,[3],64.5 fL
same,MONOCYTE,[3],1.67%
same,NEUTROPHIL,[3],5.33%
same,NUCLEATED RED BLOOD CELLS,[3],0.33 /100WBC
same,PLATELET COUNT,[3],1199 x10E3/uL
same,ALANINE AMINOTRANSFERASE,[3],60.67 u/L
same,ALBUMIN,[3],4.1 G/DL
same,ALKALINE PHOSPHATASE,[3],481.33 u/L
same,ASPARTATE AMINOTRANSFERASE,[3],90.67 u/L
same,BLOOD UREA NITROGEN,[3],14 mg/dL
same,CARBON DIOXIDE,[3],32.67 mmol/L
same,CHLORIDE,[3],99.67 MEQ/L
same,CHOLESTEROL,[3],65 mg/dL
same,CREATINE PHOSPHOKINASE,[3],401 u/L
same,CREATININE,[3],0.21 mg/dL
same,GLUCOSE,[3],145.33 mg/dL
same,LACTATE DEHYDROGENASE,[3],142.67 u/L
same,LIPASE,[3],11.67 u/L
same,PHOSPHORUS,[3],10.2 mg/dL
same,POTASSIUM,[3],5.58 MEQ/L
same,SODIUM,[3],146.1 MEQ/L
same,TOTAL BILIRUBIN,[3],0.2 mg/dL
same,TOTAL PROTEIN,[3],5.97 G/DL
same,URIC ACID,[3],0.5 mg/dL
